Assay results as given in patent publication US20110224135A1 (priority 2008, published 2011).

Key:
[1] = rat, in vivo
[2] = target: T1, human Kv1.7 channel (human), Q96RP8; assay: cell-based or functional assay
T1 chain: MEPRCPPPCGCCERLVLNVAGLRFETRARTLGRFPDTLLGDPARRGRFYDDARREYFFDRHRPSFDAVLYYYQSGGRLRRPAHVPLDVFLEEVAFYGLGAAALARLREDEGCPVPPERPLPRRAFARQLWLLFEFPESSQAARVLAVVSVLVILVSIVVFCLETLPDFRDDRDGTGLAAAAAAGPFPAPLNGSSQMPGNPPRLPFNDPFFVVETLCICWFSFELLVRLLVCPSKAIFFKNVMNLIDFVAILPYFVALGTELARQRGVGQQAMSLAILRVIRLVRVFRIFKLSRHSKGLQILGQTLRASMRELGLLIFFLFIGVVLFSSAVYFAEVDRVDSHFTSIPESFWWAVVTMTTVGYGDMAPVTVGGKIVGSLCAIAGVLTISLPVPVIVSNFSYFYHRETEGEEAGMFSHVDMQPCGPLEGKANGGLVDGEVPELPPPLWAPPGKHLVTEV

[3] = target: T2, mouse Kv1.7 channel (mouse), Q17ST2; assay: cell-based or functional assay
T2 chain: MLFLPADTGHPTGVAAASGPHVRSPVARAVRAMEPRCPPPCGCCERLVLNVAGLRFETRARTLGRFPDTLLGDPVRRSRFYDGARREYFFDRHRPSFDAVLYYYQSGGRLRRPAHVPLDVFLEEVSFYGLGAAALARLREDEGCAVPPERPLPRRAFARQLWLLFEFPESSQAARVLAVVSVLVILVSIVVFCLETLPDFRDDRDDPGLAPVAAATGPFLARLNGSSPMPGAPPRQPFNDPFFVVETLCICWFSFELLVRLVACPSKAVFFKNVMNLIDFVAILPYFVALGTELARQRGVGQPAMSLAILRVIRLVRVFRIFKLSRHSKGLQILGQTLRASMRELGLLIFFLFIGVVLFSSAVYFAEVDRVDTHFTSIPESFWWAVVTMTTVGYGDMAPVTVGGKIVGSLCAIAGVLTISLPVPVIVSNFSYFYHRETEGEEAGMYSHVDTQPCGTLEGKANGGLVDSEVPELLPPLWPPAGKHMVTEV

Molecule | AUC calculated from the glucose profiles [1] [g·min/L] | AUC of the insulin profiles [1] [ng·min/mL] | Glucose-induced blood glucose increase [1] | IC50 of block of channel currents (HEK-293 cells) [2] [nM] | IC50 of block of channel currents (two electrode voltage clamp, Xenopus oocytes) [3] [nM]
COc1ccc(Cl)cc1C(=O)NCCc1ccc(S(=O)(=O)NC(=O)NC2CCCCC2)cc1 [glibenclamide] | 79 ± 7 | 310 ± 35 | reduction of the glucose-induced glucose increase |  | 
Conkunitzin-S1 (modifications not checked) KDRPSLCDLPADSGSGTKAEKRIYYNSARKQCLRFDYTGQGGNENNFRRTYDCQRTCLYT |  |  |  | 445 | 122
